{
  "source": "patent US20030139352A1",
  "about": "“Inhibitors of ABC drug transporters in cancer cells” (priority 2001, published 2003)",
  "key": {"[1]": {"test_system": "CLA (control) Monolayer, LLC-PK1 cells", "conditions": "10 μM in donor"}, "[2]": {"target": "human PGP membranes (PGP-associated ATPase) (Homo sapiens, UniProt P08183)", "sequence (P08183 whole entry)": "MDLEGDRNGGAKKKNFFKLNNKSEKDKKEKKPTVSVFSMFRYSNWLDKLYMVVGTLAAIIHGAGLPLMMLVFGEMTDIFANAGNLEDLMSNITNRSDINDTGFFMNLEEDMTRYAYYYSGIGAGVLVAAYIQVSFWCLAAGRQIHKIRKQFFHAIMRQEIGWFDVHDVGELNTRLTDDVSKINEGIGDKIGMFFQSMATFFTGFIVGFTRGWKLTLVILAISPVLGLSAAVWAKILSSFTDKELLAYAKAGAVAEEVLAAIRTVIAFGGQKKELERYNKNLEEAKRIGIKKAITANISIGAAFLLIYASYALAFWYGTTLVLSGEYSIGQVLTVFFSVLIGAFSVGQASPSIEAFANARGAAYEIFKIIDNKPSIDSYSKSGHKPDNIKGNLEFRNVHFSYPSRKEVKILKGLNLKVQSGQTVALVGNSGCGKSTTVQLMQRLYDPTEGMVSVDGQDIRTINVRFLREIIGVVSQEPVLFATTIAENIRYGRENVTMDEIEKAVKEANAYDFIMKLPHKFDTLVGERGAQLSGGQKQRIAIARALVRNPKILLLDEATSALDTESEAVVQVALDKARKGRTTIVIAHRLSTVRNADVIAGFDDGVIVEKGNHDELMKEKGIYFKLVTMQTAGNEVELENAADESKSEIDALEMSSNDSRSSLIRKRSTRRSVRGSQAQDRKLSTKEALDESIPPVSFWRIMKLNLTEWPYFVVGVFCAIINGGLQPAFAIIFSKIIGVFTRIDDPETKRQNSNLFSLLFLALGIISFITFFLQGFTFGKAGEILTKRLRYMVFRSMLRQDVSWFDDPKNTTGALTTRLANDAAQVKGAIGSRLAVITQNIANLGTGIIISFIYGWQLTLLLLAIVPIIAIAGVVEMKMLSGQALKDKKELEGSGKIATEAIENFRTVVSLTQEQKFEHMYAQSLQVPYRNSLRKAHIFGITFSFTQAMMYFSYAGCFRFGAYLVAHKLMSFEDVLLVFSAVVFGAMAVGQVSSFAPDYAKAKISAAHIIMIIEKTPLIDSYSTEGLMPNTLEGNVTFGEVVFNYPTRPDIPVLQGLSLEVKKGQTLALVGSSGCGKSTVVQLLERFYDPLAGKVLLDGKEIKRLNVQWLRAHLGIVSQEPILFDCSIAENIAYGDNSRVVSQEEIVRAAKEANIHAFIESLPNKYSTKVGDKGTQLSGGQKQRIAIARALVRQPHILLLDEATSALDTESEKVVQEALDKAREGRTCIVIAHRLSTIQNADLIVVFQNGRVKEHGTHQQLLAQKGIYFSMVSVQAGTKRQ", "conditions": "for ATPase Activity: orthovanadate-sensitive; for ATPase Activity, basal activity subtracted: human, 20 min", "protocol": "The DMSO concentration (1.0%) was constant for all conditions within the experiment.\nThe test substances were incubated in the PGP membranes and supplemented with MgATP, with and without sodium orthovanadate present. Orthovanadate inhibits PGP by trapping MgADP in the nucleotide binding site. Thus, the ATPase activity measured in the presence of orthovanadate represents non-PGP ATPase activity and was subtracted from the activity generated without orthovanadate to yield ATPase activity.\n(§1) ATPase assays were conducted in 96-well microtiter plates. A 0.06 mL reaction mixture containing 40 μg PGP membranes, test substance, and 4 mM MgATP, in buffer containing 50 mM Tris-MES, 2 mM EGTA, 50 mM KCl, 2 mM dithiothreitol, and 5 mM sodium azide, plus organic solvent was incubated at 37° C. for 20 minutes. […] Identical reaction mixtures containing 100 μM sodium orthovanadate were assayed in parallel. The reactions were stopped by the addition of 30 μl of 10% SDS+Antifoam A. The incubations were followed with addition of 200 μl of 35 mM Ammonium Molybdate in 15 mM Zinc Acetate: 10% Ascorbic Acid (1:4) and incubated for an additional 20 minutes at 37° C. Additionally, 0.06 mL aliquots of potassium phosphate standards prepared in the buffer described above, were incubated in the plates containing the test and control substances, with SDS and detection reagent added. The liberation of inorganic phosphate was detected by its absorbance at 800 nm and quantitated by comparing the absorbance to a phosphate standard curve. The concentration dependence of the PGP was analyzed for evidence of saturation of PGP-associated ATPase activity, and apparent kinetic parameters were calculated by non-linear regression.\nas §1, with “plates.” for “plates. A 0.06 mL reaction mixture containing 40 μg PGP membranes, test substance, and 4 mM MgATP, in buffer containing 50 mM Tris-MES, 2 mM EGTA, 50 mM KCl, 2 mM dithiothreitol, and 5 mM sodium azide, plus organic solvent was incubated at 37° C. for 20 minutes.”, “activity.” for “activity, and apparent kinetic parameters were calculated by non-linear regression.”\nas §1, with “plates.” for “plates. A 0.06 mL reaction mixture containing 40 μg PGP membranes, test substance, and 4 mM MgATP, in buffer containing 50 mM Tris-MES, 2 mM EGTA, 50 mM KCl, 2 mM dithiothreitol, and 5 mM sodium azide, plus organic solvent was incubated at 37° C. for 20 minutes.”"}, "[3]": {"target": "T1, human PGP (Homo sapiens, UniProt P08183)", "T1 sequence (P08183 whole entry)": "as above", "experiment": "Inhibition of human PGP-mediated [3H]-digoxin transport in 15B-J (LLC-PK1 expressing human PGP) monolayers"}, "[4]": {"target": "human PGP (P-glycoprotein) (Homo sapiens, UniProt P08183)", "sequence (P08183 whole entry)": "as above", "experiment": "Inhibition of human PGP-mediated [3H]-digoxin transport in 15B-J (LLC-PK1 expressing human PGP) monolayers", "conditions": "human, pH 7.2, Ketoconazole Normalized % Inhibition of Digoxin Transport, normalized to 25 μM ketoconazole"}, "[5]": {"target": "T1, human PGP", "conditions": "15B-J vs CLA monolayers"}},
  "note": "Like-named read-outs stand apart in the source and are kept apart here.",
  "data": [
    {"smiles": "Cc1ccc(NC(=O)c2ccc(CN3CCNCC3)cc2)cc1Nc1nccc(-c2cccnc2)n1", "note": "[Gleevec metabolite]", "values": [
      {"measurement": "pmoles in Receiver", "setting": "[1]; A→B, 15 min", "value": 8.4, "unit": "pmol"},
      {"measurement": "pmoles in Receiver", "setting": "[1]; A→B, 30 min", "value": 2.76, "unit": "pmol"},
      {"measurement": "pmoles in Receiver", "setting": "[1]; A→B, 60 min", "value": 1.6, "unit": "pmol"},
      {"measurement": "pmoles in Receiver", "setting": "[1]; A→B, 90 min", "value": 2.0, "unit": "pmol"},
      {"measurement": "pmoles in Receiver", "setting": "[1]; A→B, 120 min", "value": 1.7, "unit": "pmol"},
      {"measurement": "pmoles in Receiver", "setting": "[1]; B→A, 15 min", "value": 1.0, "unit": "pmol"},
      {"measurement": "pmoles in Receiver", "setting": "[1]; B→A, 30 min", "value": 0.86, "unit": "pmol"},
      {"measurement": "pmoles in Receiver", "setting": "[1]; B→A, 60 min", "value": 0.7, "unit": "pmol"},
      {"measurement": "pmoles in Receiver", "setting": "[1]; B→A, 90 min", "value": 0.9, "unit": "pmol"},
      {"measurement": "pmoles in Receiver", "setting": "[1]; B→A, 120 min", "value": 1.9, "unit": "pmol"}
    ]},
    {"smiles": "C=CCN1CC[C@]23c4c5ccc(O)c4O[C@H]2C(=O)CC[C@@]3(O)[C@H]1C5", "note": "[Naloxone, naloxone]", "values": [
      {"measurement": "ATPase Activity", "setting": "[2]; 0.001 μM test substance", "value": -3.8, "unit": "nmol/mg/min"},
      {"measurement": "ATPase Activity", "setting": "[2]; 0.01 μM test substance", "value": -0.8, "unit": "nmol/mg/min"},
      {"measurement": "ATPase Activity", "setting": "[2]; 0.03 μM test substance", "value": 0.7, "unit": "nmol/mg/min"},
      {"measurement": "ATPase Activity", "setting": "[2]; 0.1 μM test substance", "value": 3.6, "unit": "nmol/mg/min"},
      {"measurement": "ATPase Activity", "setting": "[2]; 0.3 μM test substance", "value": -0.6, "unit": "nmol/mg/min"},
      {"measurement": "ATPase Activity", "setting": "[2]; 1.0 μM test substance", "value": 0.4, "unit": "nmol/mg/min"},
      {"measurement": "ATPase Activity", "setting": "[2]; 3.0 μM test substance", "value": 1.7, "unit": "nmol/mg/min"},
      {"measurement": "ATPase Activity", "setting": "[2]; 10 μM test substance", "value": 2, "unit": "nmol/mg/min"},
      {"measurement": "ATPase Activity", "setting": "[2]; 30 μM test substance", "value": 1.9, "unit": "nmol/mg/min"},
      {"measurement": "ATPase Activity", "setting": "[2]; 100 μM test substance", "value": 1.8, "unit": "nmol/mg/min"},
      {"measurement": "effect on PGP-associated ATPase activity (in words)", "setting": "[2]; semi-quantitative assay", "value": "not to limit the ATPase activity"},
      {"measurement": "inhibition of PGP-mediated digoxin transport (in words)", "setting": "[3]; 5 μM [3H]-digoxin, 15B-J monolayers", "value": "the inhibition was not concentration-dependent"},
      {"measurement": "Activity 2", "setting": "[3]; high capacity, low affinity binding site", "value": 30, "unit": "µM"},
      {"measurement": "Activity 1", "setting": "[3]; low capacity, high affinity binding site", "value": 1.0, "unit": "nM"},
      {"measurement": "inhibition at 90 min, 0.0001 μM", "setting": "[4]; 0.0001 μM test substance", "value": 6.2, "unit": "%"},
      {"measurement": "inhibition at 90 min, 0.0003 μM", "setting": "[4]; 0.0003 μM test substance", "value": 8.4, "unit": "%"},
      {"measurement": "inhibition at 90 min, 0.001 μM", "setting": "[4]; 0.001 μM test substance", "value": 10, "unit": "%"},
      {"measurement": "inhibition at 90 min, 0.01 μM", "setting": "[4]; 0.01 μM test substance", "value": -4.5, "unit": "%"},
      {"measurement": "inhibition at 90 min, 0.03 μM", "setting": "[4]; 0.03 μM test substance", "value": 5.7, "unit": "%"},
      {"measurement": "inhibition at 90 min, 0.1 μM", "setting": "[4]; 0.1 μM test substance", "value": -2.7, "unit": "%"},
      {"measurement": "inhibition at 90 min, 1 μM", "setting": "[4]; 1.0 μM test substance", "value": 7.8, "unit": "%"},
      {"measurement": "inhibition at 90 min, 3 μM", "setting": "[4]; 3.0 μM test substance", "value": -11, "unit": "%"},
      {"measurement": "inhibition at 90 min, 10 μM", "setting": "[4]; 10 μM test substance", "value": 0.4, "unit": "%"},
      {"measurement": "inhibition at 90 min, 30 μM", "setting": "[4]; 30 μM test substance", "value": 41, "unit": "%"},
      {"measurement": "inhibition at 90 min, 100 μM", "setting": "[4]; 100 μM test substance", "value": 37, "unit": "%"}
    ]},
    {"smiles": "CC(=O)O[C@H]1C(=O)[C@@]2(C)[C@H]([C@H](OC(=O)c3ccccc3)[C@]3(O)C[C@H](OC(=O)[C@H](O)[C@@H](NC(=O)c4ccccc4)c4ccccc4)C(C)=C1C3(C)C)[C@]1(OC(C)=O)CO[C@@H]1C[C@@H]2O", "note": "[Taxol, taxol]", "values": [
      {"measurement": "effect on PGP-associated ATPase activity (in words)", "setting": "[2]", "value": "stimulates PGP-associated ATPase activity in a dose dependent manner"},
      {"measurement": "ATPase Activity, basal activity subtracted", "setting": "[2]; 0.007 μM", "value": -0.3, "unit": "nmol/mg/min"},
      {"measurement": "ATPase Activity, basal activity subtracted", "setting": "[2]; 0.01 μM", "value": -0.4, "unit": "nmol/mg/min"},
      {"measurement": "ATPase Activity, basal activity subtracted", "setting": "[2]; 0.03 μM", "value": -0.9, "unit": "nmol/mg/min"},
      {"measurement": "ATPase Activity, basal activity subtracted", "setting": "[2]; 0.05 μM", "value": -0.9, "unit": "nmol/mg/min"},
      {"measurement": "ATPase Activity, basal activity subtracted", "setting": "[2]; 0.1 μM", "value": -1.6, "unit": "nmol/mg/min"},
      {"measurement": "ATPase Activity, basal activity subtracted", "setting": "[2]; 0.42 μM", "value": 2.5, "unit": "nmol/mg/min"},
      {"measurement": "ATPase Activity, basal activity subtracted", "setting": "[2]; 1.67 μM", "value": 11.1, "unit": "nmol/mg/min"},
      {"measurement": "ATPase Activity, basal activity subtracted", "setting": "[2]; 3.33 μM", "value": 12.8, "unit": "nmol/mg/min"},
      {"measurement": "ATPase Activity, basal activity subtracted", "setting": "[2]; 6.67 μM", "value": 14.4, "unit": "nmol/mg/min"},
      {"measurement": "transport by human PGP (in words)", "setting": "[5]", "value": "significantly transported by human PGP"}
    ]}
  ]
}
